For data set [1], the system named is ALP activity of MC3T3-E1 osteoblasts in co-incubation. Kind of data set: Co-culture of osteoclasts and osteoblasts: ALP activity. The format is cell-based, mouse. The settings on record: 10 μM, vs non-treated. How it is done: 1×10^5 C57BL/6 mouse bone marrow mononuclear cells per well of a 48-well plate were prepared in the same manner as described above, and co-incubated together with 1.5×10^4 MC3T3-E1 murine osteoblasts, using 500 μL of α-MEM containing 10% FBS and 1% antibiotic (100 U/mL penicillin G and […] streptomycin) in the conditions of 37° C. and 5% CO2 while the medium was exchanged every three days.
Positive control cells were co-incubated together with osteoclast differentiation factors M-CSF (60 ng/mL) and RANKL (150 ng/mL), and osteoblast differentiation factors ascorbic acid (50 μg/mL) and 10 mM R-glycerophosphate.
Negative control cells were incubated by adding only M-CSF as a differentiation factor. In order to examine effects of osmundacetone on the differentiation of osteoclasts and osteoblasts, osmundacetone were administered at a final concentration of 10 μM into the positive control cells on day 1 after the cells were dispensed on the plate.
ALP activity was assessed using Quantichrom ALP Assay Kit (Bioassay Systems, Hayward, Calif., USA) according to manufacturer's instructions.
[…] The % activation of ALP activity was shown by comparing ALP activity of cells treated with an experimental compound and ALP activity of the non-treated control cells.
In order to investigate whether or not osmundacetone has ability to inhibit osteoclast differentiation and activate osteoblast differentiation simultaneously, bone marrow mononuclear cells collected from C57BL/6 mice and MC3T3-E1 cells as osteoblast precursor cells were co-incubated in a 48-well plate at cell concentrations of 1×10^5 bone marrow cells and […] MC3T3-E1 cells per well. The bone marrow monocyte/macrophage lineage cells in the co-incubated bone marrow cells and osteoblast precursor cells differentiated into mature multinuclear osteoclasts in the presence of M-CSF and RANKL within 6-7 days.

Another data set has as its system OCN in MC3T3-E1 cells. Kind of data set: Western blot, OCN production by osteoblasts. The format is cell-based, mouse. To be noted: 50 μM. The method, then: In order to analyze the expression of osteoblast differentiation markers during a differentiation procedure, 3×10^5 MC3T3-E1 cells were dispensed in a 100 mm culture plate together with 10 mL of complete α-MEM containing ascorbic acid (50 μg/mL) and 10 mM R-glycerophosphate per well. Here, 50 μM osmundacetone was added or not added, and the cells were incubated at 37 […] in a 5% CO2 incubator for 21 days while the medium was exchanged every 3-4 days.
The negative control cells were cultured without differentiation factors, and the osteoblasts and a culture thereof were dispensed, and then collected on day 7, 14, or 21.
The cells were lysed using RIPA buffer, and then the expression of runt-related transcription factor 2 (RUNX2) was analyzed. Also for analysis of OCN secretion, the culture was collected, and normalized by cellular DNA.
Proteins were analyzed using SDS-PAGE on 12.5% […] gels, and transferred on polyvinylidene difluoride (PVDF) membrane through electrophoresis.
The membrane was blocked using non-fat milk, and examined using anti-RUNX2 (D1H7) rabbit monoclonal antibody (#8486, Cell Signaling Technology, MA, USA) or anti-OCN (FL-95) antibody (# sc-30045, Santa Cruz Biotechnology, TX, USA). Anti-actin antibody (# M177-3, MEDICAL & BIOLOGICAL LABORATORIES CO., LTD., Nagoya, Aichi, Japan) was used as an internal reference. […]
On the technique in general: In western blotting, separated proteins are transferred to a membrane and probed.

Data set [2] deals with ADMSC human Adipose-derived mesenchymal stem cells. Put plainly: MTT assay cytotoxicity. The format is cell-based. To be noted: 24 hours, read-out: IC50 according to MTT assay. The method, then:
Human adipose-derived mesenchymal stem cells, ADMSCs (CEFO Bio, Seoul, Korea), were incubated using CB-ADMSC-GM (CEFO Bio, Seoul, Korea) in the conditions of 37° C. and 5% CO2.
(§1) The compound isolated from Osmunda japonica, prepared in section 1 of <Example 1>, was investigated for cytotoxicity using MTT assay.
(§2) MTT assay was as follows.
(§3) Cells were incubated at 1×10^3 cells/well in a 96-well plate containing DMEM with 10% fetal bovine serum (FBS) at 5% CO2 and 37° C., and then osmundacetone was added to the cell medium, followed by incubation for 24 hours. Thereafter, 100 μL of MTT (0.5 mg/ml PBS) was administered, followed by incubation for 2 hours. Thereafter, the medium was removed from each well, and 100 μL of DMSO was added. After incubation for 10 minutes, the absorbance was measured using a microplate reader (SPCTRA MAX 340PC, Molecular Devices, USA) at 570 nm. The absorbance is an indicator showing the number of living cells, and calculated by the following equation. The reproducibility thereof was validated by three experiments.
(§4) Cell proliferation (%)=OD550(sample)/OD550(control)

The subject of a further data set is B16F10 mouse melanoma. Put plainly: MTT assay cytotoxicity. To be noted: B16F10, 24 hours. The format is cell-based. How it is done:
(§5) HaCaT human epidermal keratinocytes, # ATCC PCS-200-011) were incubated using Dulbecco's modified Eagle's medium (DMEM, # DMEM-HPA, Capricorn Scientific, Ebsdorfergrund, Germany) in the conditions of 37° C. and 5% CO2. NIH3T3 mouse embryo fibroblasts (# KCLB 21658), RAW264.7 murine macrophages (preosteoclast cell line, # KCLB 40071), HCT116 human colon cancer cells (# KCLB 10247), PC3 human prostate adenocarcinoma cells (# KCLB 21435), HT1080 human fibrosarcoma cells (# KCLB 1121), and B16F10 mouse malignant melanoma cells (# KCLB 80008) were purchased from the Korean Cell Line Bank, and incubated using DMEM in the conditions of 37° C. and 5% C02.
as §1, §2
(§6) Cells were incubated at 1×10^3 cells/well in a 96-well plate containing DMEM with 10% fetal bovine serum (FBS) at 5% CO2 and 37° C., and then osmundacetone was added to the cell medium, followed by incubation for 24 hours. Thereafter, 100 μL of MTT (0.5 mg/ml PBS) was administered, followed by incubation for 2 hours. […] After incubation for 10 minutes, the absorbance was measured using a microplate reader (SPCTRA MAX 340PC, Molecular Devices, USA) at 570 nm. The absorbance is an indicator showing the number of living cells, and calculated by the following equation. […]
A general note: Tetrazolium dyes change colour on reduction, which living cells bring about.

In data set [3] the test system is NIH3T3 mouse embryo fibroblasts. Put plainly: MTT assay cytotoxicity. The format is cell-based. To be noted: NIH3T3, 24 hours, read-out: IC50 according to MTT assay. The method, then:
as §5, §1, §2, §6

In the next data set the test system is normal cell lines. Kind of data set: MTT assay cytotoxicity, normal cell lines (summary). The format is cell-based. How it is done:
as §1, §2, §3, §4

For data set [4] the following is noted: US toxic substance regulatory agencies, Not Listed; cited from earlier work.

Structures are written as SMILES.

In the case of `CC(=O)/C=C/c1ccc(O)c(O)c1` [Osmundacetone, (3E)-4-(3,4-dihydroxyphenyl)-3-buten-2-one], the “% activation of ALP activity in co-incubation” value is given as 104% in data set [1] (day 7 of co-incubation), 111% in data set [1] (day 14 of co-incubation) and 95% in data set [1] (day 21 of co-incubation). Besides, the entries for the “OCN production by osteoblasts, increase compared with non-treated positive control cells” value in the data set with OCN in MC3T3-E1 cells (day 14) and in the data set with OCN in MC3T3-E1 cells (day 21) were 2.9 times and 1.2 times, respectively. In addition, the IC50 is 2760 µM in data set [2] and above 5000 µM in data set [3]. Moreover, in the data set with B16F10 mouse melanoma, the “LD50 (MTT assay)” value amounted to 75.8 ± 9.2 µM. For the same compound, in the data set on normal cell lines (judged against IC50 of less than 100 μM as active), the “cell cytotoxicity on normal cell lines” value is listed as “did not show cell cytotoxicity”. Moreover, in the data set with normal cell lines (summary range), the “LD50 for normal cell lines” value was 2,500-5,000 μM. In addition, the “tests of human toxicity, irritation, carcinogenicity, environmental toxicity” value in data set [4] is “harmless and safe”.

The IC50 is the concentration at which inhibition is half-maximal.

The values above are taken from patent US20200129450A1, “COMPOSITION COMPRISING OSMUNDACETONE OR PHARMACEUTICALLY ACCEPTABLE SALT THEREOF FOR PREVENTING OR TREATING BONE DISEASE” (KORPHARM CO., LTD., priority 2016, published 2020).
